According to PubChem BioAssay (NCI):
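96-well plates; 48 h exposure; 5 concentrations. Endpoints by linear interpolation between flanking doses. Not reached: highest tested concentration assigned. At the GI50, growth is halved. At the TGI there is no net growth.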

How the values were obtained:
Test in all cases: NCI tumour cell line growth inhibition, 48 h
SNB-19 CNS = tested on: SNB-19 CNS
OVCAR-5 ovarian = tested on: OVCAR-5 ovarian
TK-10 renal = tested on: TK-10 renal
CAKI-1 renal = tested on: CAKI-1 renal
A549 NSCLC = tested on: A549 NSCLC
UACC-62 melanoma = tested on: UACC-62 melanoma
UACC-257 melanoma = tested on: UACC-257 melanoma
A498 renal = tested on: A498 renal

SMILES	GI50 (SNB-19 CNS)	TGI (SNB-19 CNS)	GI50 (OVCAR-5 ovarian)	TGI (OVCAR-5 ovarian)	GI50 (TK-10 renal)	TGI (TK-10 renal)	GI50 (CAKI-1 renal)	TGI (CAKI-1 renal)	GI50 (A549 NSCLC)	TGI (A549 NSCLC)	GI50 (UACC-62 melanoma)	TGI (UACC-62 melanoma)	GI50 (UACC-257 melanoma)	TGI (UACC-257 melanoma)	GI50 (A498 renal)	TGI (A498 renal)
COc1cccc(NC2=C(Cl)C(=O)N(Cc3ccc(Cl)cc3)C2=O)c1	8.25 µM	> 100 µM	10 µM	43.2 µM	3.45 µM	27.3 µM	2.25 µM	17.5 µM	2.67 µM	26.8 µM	1.97 µM	18.3 µM	3.12 µM	30.3 µM	11.8 µM	27.3 µM
CC(N1CCOCC1)C(O)(c1ccccc1)c1ccccn1 (stereo unspecified)	–	> 100 µM	–	> 100 µM	–	> 100 µM	–	> 100 µM	–	> 100 µM	–	> 100 µM	–	> 100 µM	–	> 100 µM
CCN(CC)Cc1cc(Nc2c3ccccc3nc3cc(Cl)ccc23)ccc1O	2.04 µM	5.27 µM	2.42 µM	6.66 µM	1.64 µM	3.23 µM	1.87 µM	4.73 µM	1.36 µM	4.26 µM	2.1 µM	4 µM	1.9 µM	3.41 µM	1.73 µM	3.29 µM
O=C(CCCCCCCCC(=O)N/N=C\c1cc(Cl)ccc1O)N/N=C\c1cc(Cl)ccc1O	0.813 µM	> 100 µM	7.99 µM	> 100 µM	3.89 µM	> 75.5 µM	0.251 µM	> 100 µM	0.98 µM	> 100 µM	0.235 µM	–	0.306 µM	–	> 33.1 µM	> 80.9 µM
C=CC(C)(O)CC/C=C(\CO)C(=O)OC1C(C)OC(O[C@](C)(C=C)CC/C=C(\CO)C(=O)O[C@H]2C[C@@]3(C(=O)OC4OC(CO)C(O)C(O)C4OC4OC(C)C(OC5OC(CO)C(O)C5O)C(OC5OC(CO)C(O)C(O)C5O)C4O)C(CC2(C)C)C2=CCC4[C@@]5(C)CC[C@H](OC6OC(COC7OC(C)C(O)C(O)C7OC7OCC(O)C(O)C7O)C(O)C(O)C6NC(C)=O)C(C)(C)C5CC[C@@]4(C)[C@]2(C)C[C@H]3O)C(O)C1O (stereo partly specified)	0.107 µM	1.12 µM	1.38 µM	5.95 µM	0.097 µM	0.237 µM	0.196 µM	0.916 µM	0.286 µM	1.49 µM	0.687 µM	5.28 µM	0.461 µM	1.47 µM	0.142 µM	0.585 µM
Oc1ccc(Cl)cc1/C=N\NC(=S)N/N=C/c1cc(Cl)ccc1O	3.4 µM	> 100 µM	5.04 µM	> 100 µM	2.68 µM	34.5 µM	1.24 µM	8.48 µM	3.75 µM	> 100 µM	1.74 µM	7.57 µM	2.13 µM	7.49 µM	2.36 µM	11.5 µM
COc1cc(/C=N/NC(=O)c2ccccc2Nc2cccc(C(F)(F)F)c2)cc(OC)c1OC	3.85 µM	18.5 µM	11.8 µM	33.1 µM	2.36 µM	8.74 µM	1.4 µM	4.71 µM	3.6 µM	10.8 µM	3.66 µM	11.6 µM	4.36 µM	15.4 µM	1.93 µM	6.76 µM
CC(=O)[C-](C(C)=O)c1ccccc1.CC(=O)[C-](C(C)=O)c1ccccc1.CC(=O)[C-](C(C)=O)c1ccccc1.[Cl-].[Zr+4]	82.9 µM	> 100 µM	> 100 µM	> 100 µM	> 100 µM	> 100 µM	> 100 µM	> 100 µM	> 100 µM	> 100 µM	> 100 µM	> 100 µM	> 100 µM	> 100 µM	> 100 µM	> 100 µM
O=C(/C=C/c1ccc([N+](=O)[O-])cc1)c1cccc(Nc2nc(Nc3ccccc3)nc(Nc3ccccc3)n2)c1	79.8 µM	> 100 µM	51 µM	> 100 µM	54.3 µM	> 100 µM	25.2 µM	> 100 µM	25 µM	> 100 µM	21.7 µM	> 100 µM	68.7 µM	> 100 µM	11.8 µM	28.1 µM
COc1ccc(C2=Nc3c/c(=C\c4c(O)[nH]c5cc(Cl)ccc45)ccc3=N2)cc1	15.1 µM	41.1 µM	22 µM	60 µM	21 µM	39.3 µM	14.5 µM	43.6 µM	10.1 µM	25.4 µM	8.95 µM	22.7 µM	11 µM	25.8 µM	5.24 µM	> 100 µM
O=C(O)CCc1nc(-c2ccccc2-n2cccc2)no1	–	> 100 µM	–	> 100 µM	–	> 100 µM	–	> 100 µM	–	> 100 µM	–	> 100 µM	–	> 100 µM	–	> 100 µM
O=C(C=C=Nc1ccccc1)C(=O)N=C=Cc1ccccc1	31.6 µM	> 60.7 µM	2.88 µM	11.8 µM	2.52 µM	6.83 µM	1.73 µM	6.05 µM	6.74 µM	22.9 µM	4.26 µM	12.6 µM	2.38 µM	5.56 µM	16 µM	34 µM
COc1cc(Cn2c(-c3ccccc3)cc3c2-c2oncc2CC3)cc(OC)c1	0.562 µM	> 100 µM	0.551 µM	> 100 µM	2.44 µM	> 100 µM	0.354 µM	> 100 µM	0.404 µM	> 100 µM	0.314 µM	> 100 µM	–	> 100 µM	0.153 µM	0.75 µM
Cc1ccc(-c2n[nH]c(=O)c3noc(-c4ccc(C)cc4)c23)cc1	2.13 µM	42.8 µM	5.99 µM	> 100 µM	2.35 µM	14.2 µM	2.27 µM	> 100 µM	0.74 µM	> 100 µM	0.718 µM	56.5 µM	5.87 µM	> 100 µM	1.27 µM	6.71 µM
CNC(c1ccncc1)C(NC)c1ccncc1 (stereo unspecified)	–	> 100 µM	–	> 100 µM	–	> 100 µM	–	> 100 µM	–	> 100 µM	–	> 100 µM	–	> 100 µM	–	> 100 µM
Nc1ccn(C2OC(C(OC3OC(CO)C(O)C(N)C3O)C(O)C(O)C(O)C(O)CO)C(N)C(O)C2O)c(=O)n1 (stereo unspecified)	–	> 100 µM	–	> 100 µM	–	> 100 µM	–	> 100 µM	–	> 100 µM	–	> 100 µM	–	> 100 µM	–	> 100 µM
